Some test systems named below: HS 578T breast; UACC-62 melanoma; HOP-62 NSCLC; SK-MEL-2 melanoma; K-562 leukemia; OVCAR-5 ovarian; ACHN renal; CCRF-CEM leukemia; OVCAR-4 ovarian; SF-539 CNS.
Holding throughout (assay): NCI-60 cell line screen, 48 h

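48-hour exposure; five concentrations; linearly interpolated endpoints. TGI denotes the concentration required for complete inhibition of growth.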

As for `CCOc1ccc(N=Nc2ccc3cc(/C(C)=N/NC(=O)/C(C#N)=C\c4ccc(N(CCC#N)CCC#N)cc4)c(=O)oc3c2)cc1`, the TGI with HS 578T breast, in the assay on UACC-62 melanoma, in the assay with HOP-62 NSCLC, in the assay with SK-MEL-2 melanoma, with K-562 leukemia and in the assay with OVCAR-5 ovarian was more than 10 µM in each case. The TGI in the assay on ACHN renal, in the assay with CCRF-CEM leukemia, with OVCAR-4 ovarian and in the assay on SF-539 CNS was more than 10 µM each time.

Turning to `CN(C)CCNc1c([N+](=O)[O-])sc2ccc(Cl)cc12`, the TGI with HS 578T breast was more than 100 µM; with UACC-62 melanoma, 62.7 µM; in the assay with HOP-62 NSCLC it was more than 100 µM; in the assay on SK-MEL-2 melanoma it was more than 100 µM; in the assay on K-562 leukemia it was more than 100 µM; in the assay with OVCAR-5 ovarian, more than 100 µM. Also, the TGI in the assay on ACHN renal is more than 100 µM; in the assay on CCRF-CEM leukemia, more than 100 µM; in the assay with OVCAR-4 ovarian, more than 100 µM; in the assay with SF-539 CNS, 46.9 µM.

Regarding `CC(=O)OCC(=O)O[C@@H]1[C@H]2[C@@H](OC(=O)c3ccccc3)[C@@H](C)C[C@]2(O)[C@H](OC(C)=O)[C@@]2(C)C[C@]1(OC(C)=O)C[C@H]1C(=O)C(C)(C)[C@@H](OC(C)=O)[C@@H]12`, the TGI was more than 25 µM in the assay on HS 578T breast; more than 25 µM in the assay with UACC-62 melanoma; more than 25 µM with HOP-62 NSCLC; more than 25 µM with SK-MEL-2 melanoma; more than 25 µM in the assay with K-562 leukemia; more than 15.7 µM in the assay on OVCAR-5 ovarian. Further, the TGI in the assay with ACHN renal, in the assay with CCRF-CEM leukemia, with OVCAR-4 ovarian and in the assay with SF-539 CNS was more than 25 µM in each case.

For the compound `C=C(C)[C@H]1CC(=O)/C(C)=C\CC/C(C)=C/CC[C@@]2(C)O[C@@H]2C1`, the TGI in the assay on HS 578T breast is more than 100 µM; with UACC-62 melanoma, 26.2 µM; in the assay on HOP-62 NSCLC, more than 100 µM; with SK-MEL-2 melanoma it was more than 100 µM; in the assay with K-562 leukemia, more than 100 µM; with OVCAR-5 ovarian it was 94.8 µM. Besides, the TGI in the assay with ACHN renal was 87.3 µM; with CCRF-CEM leukemia, more than 100 µM; in the assay with OVCAR-4 ovarian it was 75.3 µM; with SF-539 CNS, 42.2 µM.

As for `CC1(C)OC[C@@H](C[C@H](O)COCc2ccccc2)O1`, the TGI in the assay with HS 578T breast, in the assay on UACC-62 melanoma, in the assay with HOP-62 NSCLC, in the assay on SK-MEL-2 melanoma, in the assay with K-562 leukemia and with OVCAR-5 ovarian was more than 100 µM throughout. Further, the TGI with ACHN renal, in the assay with CCRF-CEM leukemia, in the assay with OVCAR-4 ovarian and in the assay on SF-539 CNS was more than 100 µM in each case.

Take `CCCCN1C(=O)CC2[C@@H]3CCc4cc(OC)ccc4C3CC[C@]2(C)C1=O` (some centres undefined): the TGI with HS 578T breast, with UACC-62 melanoma, with HOP-62 NSCLC, in the assay on SK-MEL-2 melanoma, in the assay on K-562 leukemia and in the assay on OVCAR-5 ovarian was more than 10 µM throughout. The TGI with ACHN renal, with CCRF-CEM leukemia, with OVCAR-4 ovarian and in the assay on SF-539 CNS was more than 10 µM each time.

With `O=C1N/N=C\c2ccc(cc2)OCc2cccc(n2)COc2ccc(cc2)/C=N\NC1=O`, the TGI in the assay with HS 578T breast, with UACC-62 melanoma, with HOP-62 NSCLC, in the assay on SK-MEL-2 melanoma, in the assay with K-562 leukemia and in the assay on OVCAR-5 ovarian was more than 25 µM in each case. Further, the TGI in the assay with ACHN renal, in the assay on CCRF-CEM leukemia, in the assay on OVCAR-4 ovarian and with SF-539 CNS was more than 25 µM each time.

Consider `Cn1nc2c(c1N)Cc1c(nn(C)c1N)-c1ccccc1-2`, for which the TGI in the assay with HS 578T breast, with UACC-62 melanoma, in the assay with HOP-62 NSCLC, in the assay with SK-MEL-2 melanoma, in the assay on K-562 leukemia and with OVCAR-5 ovarian was more than 100 µM throughout. For the same compound, the TGI with ACHN renal, with CCRF-CEM leukemia, with OVCAR-4 ovarian and in the assay on SF-539 CNS was more than 100 µM throughout.

Regarding `CC(=O)N(C)c1ccc(Nc2ccnc3ccc4nn(C)nc4c23)cc1`, the TGI in the assay on HS 578T breast stood at 53.2 µM; in the assay with UACC-62 melanoma it was 37 µM; in the assay with HOP-62 NSCLC, 84.3 µM; in the assay on SK-MEL-2 melanoma, 45.7 µM; in the assay on OVCAR-5 ovarian it was 94.1 µM; in the assay on ACHN renal, 30.2 µM. For the same compound, the TGI is 42 µM in the assay with CCRF-CEM leukemia, more than 100 µM with OVCAR-4 ovarian and 46.4 µM in the assay on SF-539 CNS.

In the case of `Cc1cc(S(=O)(=O)Nc2n[nH]c(Nc3ccccc3)n2)c(SCC(=O)O)cc1Cl`, the TGI in the assay on HS 578T breast, with UACC-62 melanoma, in the assay on HOP-62 NSCLC, in the assay on SK-MEL-2 melanoma, in the assay with K-562 leukemia and in the assay on OVCAR-5 ovarian was more than 100 µM throughout. Moreover, the TGI with ACHN renal, in the assay with CCRF-CEM leukemia, with OVCAR-4 ovarian and in the assay on SF-539 CNS was more than 100 µM in each case.

With `O=C(/C=C\Nc1ccccc1O)C(F)(F)F`, the TGI with HS 578T breast, in the assay on UACC-62 melanoma, in the assay on HOP-62 NSCLC, with SK-MEL-2 melanoma, in the assay with K-562 leukemia and with OVCAR-5 ovarian was more than 100 µM throughout. The TGI in the assay on ACHN renal, in the assay with CCRF-CEM leukemia, in the assay with OVCAR-4 ovarian and in the assay on SF-539 CNS was more than 100 µM each time.

As for `CC1=C(C(=O)NC2CCCCC2)CC(C(=O)NC2CCCCC2)=C(C)N1`, the TGI with HS 578T breast, in the assay with UACC-62 melanoma, in the assay on HOP-62 NSCLC, in the assay on SK-MEL-2 melanoma, in the assay on K-562 leukemia and in the assay on OVCAR-5 ovarian was more than 100 µM in each case. Further, the TGI in the assay on ACHN renal, with CCRF-CEM leukemia, in the assay on OVCAR-4 ovarian and in the assay on SF-539 CNS was more than 100 µM each time.

For `COc1cc2c3c(cc(Cl)nc3c1OC)C(=O)C(=O)N2`, the TGI in the assay with HS 578T breast was more than 100 µM; with UACC-62 melanoma, 18.1 µM; in the assay on HOP-62 NSCLC, 34.7 µM; in the assay with SK-MEL-2 melanoma, 27.6 µM; with K-562 leukemia it was more than 100 µM; in the assay with OVCAR-5 ovarian, 32.2 µM. Also, the TGI was determined as 27.9 µM in the assay with ACHN renal, 8.21 µM in the assay with CCRF-CEM leukemia, 3.05 µM in the assay on OVCAR-4 ovarian and 36.4 µM in the assay with SF-539 CNS.

The values above are taken from PubChem BioAssay (NCI).
